Legend:
mTOR = target: T1, mTOR (Homo sapiens, UniProt P42345); experiment: Biochemical assay for m-TOR by TR-FRET; settings: 8 μM ATP, 400 nM GFP-4EBP1, 0.5 nM mTOR
T1 construct: purchased Invitrogen Corporation (Carlsbad/CA, USA) PV4753
Summary of the method: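 TR-FRET read-out: Tb-labelled anti-p4EBP1 pThr46 antibody (0.5 nM), added in EDTA to stop the reaction, detects phosphorylated GFP-4EBP1 after 15 min. Kinase step used 0.5 nM mTOR, 400 nM substrate, 8 μM ATP, MnCl2-containing HEPES buffer pH 7.5, room temperature.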

[1] = system: PKB Ser473 phosphorylation in Rat1-myr-HA-p110 alpha cells; experiment: Reverse protein array assay, PKB Ser473 phosphorylation in Rat1-myr-p110 alpha cells; assay type: cell-based; settings: 0.5 h, pAkt Ser473, 30 minutes compound incubation, read-out: p-PKB IC50
Summary of the method: (§1)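 After at least 20 h of culture, the p110 isoform-transfected Rat1 lines receive compound in an 8-step dilution series, keeping DMSO at 0.2%, for 30 minutes. Cells are then lysed and lysates arrayed on chips for fluorescence detection of Ser473-phosphorylated PKB.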

[2] = system: PKB Ser473 phosphorylation in Rat1-myr-HA-p110 beta cells; experiment: Reverse protein array assay, PKB Ser473 phosphorylation in Rat1-myr-p110 beta cells; assay type: cell-based; settings: 0.5 h, pAkt Ser473, 30 minutes incubation, read-out: p-PKB IC50
Summary of the method: as §1

[3] = system: PKB Ser473 phosphorylation in Rat1-myr-HA-p110 delta cells; experiment: Reverse protein array assay, PKB Ser473 phosphorylation in Rat1-myr-p110 delta cells; assay type: cell-based; settings: read-out: p-PKB IC50
Summary of the method: as §1

T1 sequence (P42345 1360-2549 limits assumed): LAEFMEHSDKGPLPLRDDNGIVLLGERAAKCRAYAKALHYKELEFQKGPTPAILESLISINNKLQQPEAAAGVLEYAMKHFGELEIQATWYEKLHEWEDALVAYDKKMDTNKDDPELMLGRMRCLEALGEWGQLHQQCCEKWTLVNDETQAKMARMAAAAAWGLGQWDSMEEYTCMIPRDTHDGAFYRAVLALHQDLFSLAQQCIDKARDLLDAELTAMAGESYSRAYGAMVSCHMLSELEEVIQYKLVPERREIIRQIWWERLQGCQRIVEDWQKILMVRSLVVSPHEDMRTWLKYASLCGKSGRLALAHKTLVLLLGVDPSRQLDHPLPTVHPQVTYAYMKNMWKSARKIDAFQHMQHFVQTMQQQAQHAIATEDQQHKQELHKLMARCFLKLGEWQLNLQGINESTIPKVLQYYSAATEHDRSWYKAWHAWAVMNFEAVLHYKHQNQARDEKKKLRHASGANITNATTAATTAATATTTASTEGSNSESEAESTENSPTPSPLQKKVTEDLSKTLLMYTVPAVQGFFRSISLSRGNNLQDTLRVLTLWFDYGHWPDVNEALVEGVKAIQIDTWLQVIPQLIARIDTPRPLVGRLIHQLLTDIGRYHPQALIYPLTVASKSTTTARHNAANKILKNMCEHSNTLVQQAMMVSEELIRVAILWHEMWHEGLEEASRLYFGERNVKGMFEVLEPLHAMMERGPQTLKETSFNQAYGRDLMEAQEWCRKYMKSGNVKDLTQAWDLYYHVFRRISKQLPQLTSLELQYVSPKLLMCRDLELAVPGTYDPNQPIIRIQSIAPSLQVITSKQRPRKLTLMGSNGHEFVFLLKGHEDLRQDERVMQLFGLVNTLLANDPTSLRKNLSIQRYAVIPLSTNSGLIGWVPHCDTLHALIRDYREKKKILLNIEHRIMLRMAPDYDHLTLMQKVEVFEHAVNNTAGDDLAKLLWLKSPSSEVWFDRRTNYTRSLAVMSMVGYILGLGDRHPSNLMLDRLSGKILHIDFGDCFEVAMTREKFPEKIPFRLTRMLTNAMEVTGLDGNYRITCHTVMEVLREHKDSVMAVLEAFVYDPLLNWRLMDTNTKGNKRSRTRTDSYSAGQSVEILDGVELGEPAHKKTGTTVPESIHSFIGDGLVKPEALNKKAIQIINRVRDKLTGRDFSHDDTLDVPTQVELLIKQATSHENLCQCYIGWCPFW

With `CCOCc1cc(-c2ccc3ncc4c(c3c2)n(-c2cn(C)nc2C)c(=O)n4C)cnc1N` [Example 166.1, 8-(6-Amino-5-ethoxymethyl-pyridin-3-yl)-1-(1,3-dimethyl-1H-pyrazol-4-yl)-3-methyl-1,3-dihydro-imidazo[4,5-c]quinolin-2-one] the IC50 (mTOR) was 33 nM, the IC50 [1] was 22 nM and the IC50 [2] was 54 nM. For the same compound, the IC50 [3] was 57 nM.
With `Cn1cc(-n2c(=O)n(C)c3cnc4ccc(-c5cnc(N)c(CO)c5)cc4c32)c(Cl)n1` [Example 169.3, 8-(6-Amino-5-hydroxymethyl-pyridin-3-yl)-1-(3-chloro-1-methyl-1H-pyrazol-4-yl)-3-methyl-1,3-dihydro-imidazo[4,5-c]quinolin-2-one] the IC50 (mTOR) was < 3 nM, the IC50 [1] was 19 nM and the IC50 [2] was 24 nM. The IC50 [3] was 41 nM.
`CCN(C)c1cncc(-c2ccc3ncc4c(c3c2)n(-c2cn(C)nc2C)c(=O)n4C)c1` [Example 176, 1-(1,3-Dimethyl-1H-pyrazol-4-yl)-8-[5-(ethyl-methyl-amino)-pyridin-3-yl]-3-methyl-1,3-dihydro-imidazo[4,5-c]quinolin-2-one] was tested, and the IC50 (mTOR) was 15 nM, the IC50 [1] was < 5 nM and the IC50 [2] was 7 nM. It also gave an IC50 [3] of 48 nM.
In the case of `Cc1nn(C)cc1-n1c(=O)n(C)c2cnc3ccc(-c4cncc(OC(F)F)c4)cc3c21` [Example 183, 8-(5-Difluoromethoxy-pyridin-3-yl)-1-(1,3-dimethyl-1H-pyrazol-4-yl)-3-methyl-1,3-dihydro-imidazo[4,5-c]quinolin-2-one], the IC50 (mTOR) is reported as < 3 nM, the IC50 [1] is reported as 23 nM and the IC50 [2] is reported as 52 nM. For the same compound, the IC50 [3] was 51 nM.
Compound `COc1cc(-c2ccc3ncc4c(c3c2)n(-c2cn(C)nc2C)c(=O)n4C)cnc1C` [Example 184, 1-(1,3-Dimethyl-1H-pyrazol-4-yl)-8-(5-methoxy-6-methyl-pyridin-3-yl)-3-methyl-1,3-dihydro-imidazo[4,5-c]quinolin-2-one] has an IC50 (mTOR) of 6 nM, an IC50 [1] of 5 nM and an IC50 [2] of 16 nM. The IC50 [3] was 16 nM.
Work on `CCOc1cc(-c2ccc3ncc4c(c3c2)n(-c2cn(C)nc2C)c(=O)n4C)cnc1COC` [Example 197.1, 1-(1,3-Dimethyl-1H-pyrazol-4-yl)-8-(5-ethoxy-6-methoxymethyl-pyridin-3-yl)-3-methyl-1,3-dihydro-imidazo[4,5-c]quinolin-2-one] yielded an IC50 (mTOR) of 39 nM, an IC50 [1] of 23 nM and an IC50 [2] of 40 nM. It also gave an IC50 [3] of 132 nM.
Compound `Cc1nn(CC(=O)N2CCC2)cc1-n1c(=O)n(C)c2cnc3ccc(-c4cncc(OC(C)C)c4)cc3c21` [Example 205, 1-[1-(2-Azetidin-1-yl-2-oxo-ethyl)-3-methyl-1H-pyrazol-4-yl]-8-(5-isopropoxy-pyridin-3-yl)-3-methyl-1,3-dihydro-imidazo[4,5-c]quinolin-2-one] has an IC50 (mTOR) of 22 nM, an IC50 [1] of 76 nM and an IC50 [2] of 266 nM. The IC50 [3] was 772 nM.
`Cc1nn(C)cc1-n1c(=O)[nH]c2cnc3ccc(-c4cnc(N(C)C)nc4)cc3c21` [Example 207, 8-(2-Dimethylamino-pyrimidin-5-yl)-1-(1,3-dimethyl-1H-pyrazol-4-yl)-1,3-dihydro-imidazo[4,5-c]quinolin-2-one] was tested, and the IC50 (mTOR) was 11 nM, the IC50 [1] was 65 nM and the IC50 [2] was 63 nM. It also gave an IC50 [3] of 238 nM.
For `CCNc1cc(-c2ccc3ncc4c(c3c2)n(-c2c(C)nn(CCO)c2C)c(=O)n4C)cnc1C` [Example 210, 8-(5-Ethylamino-6-methyl-pyridin-3-yl)-1-[1-(2-hydroxy-ethyl)-3,5-dimethyl-1H-pyrazol-4-yl]-3-methyl-1,3-dihydro-imidazo[4,5-c]quinolin-2-one], the IC50 (mTOR) was 40 nM, the IC50 [1] was 57 nM and the IC50 [2] was 22 nM. For the same compound, the IC50 [3] was 53 nM.
With `CCOc1cc(-c2ccc3ncc4c(c3c2)n(-c2cn(CCO)nc2C)c(=O)n4C)cnc1C` [Example 211.2, 8-(5-Ethoxy-6-methyl-pyridin-3-yl)-1-[1-(2-hydroxy-ethyl)-3-methyl-1H-pyrazol-4-yl]-3-methyl-1,3-dihydro-imidazo[4,5-c]quinolin-2-one] the IC50 (mTOR) was 11 nM, the IC50 [1] was 8 nM and the IC50 [2] was 38 nM. For the same compound, the IC50 [3] was 105 nM.
`Cc1nn(C)cc1-n1c(=O)n(C)c2cnc3ccc(-c4ccc(N5CC[C@@H](O)C5)nc4)cc3c21` [Example 212.1, 1-(1,3-Dimethyl-1H-pyrazol-4-yl)-8-[6-((R)-3-hydroxy-pyrrolidin-1-yl)-pyridin-3-yl]-3-methyl-1,3-dihydro-imidazo[4,5-c]quinolin-2-one] showed an IC50 (mTOR) of 72 nM, an IC50 [1] of 135 nM and an IC50 [2] of 199 nM. The IC50 [3] was 768 nM.
`Cc1nn(C(C)C)cc1-n1c(=O)n(C)c2cnc3ccc(-c4cncc(C(C)(C)O)c4)cc3c21` [Example 215.1, 8-[5-(1-Hydroxy-1-methyl-ethyl)-pyridin-3-yl]-1-(1-isopropyl-3-methyl-1H-pyrazol-4-yl)-3-methyl-1,3-dihydro-imidazo[4,5-c]quinolin-2-one] gave an IC50 (mTOR) of 35 nM, an IC50 [1] of 16 nM and an IC50 [2] of 48 nM. The IC50 [3] was 330 nM.
In the case of `CCn1cc(-n2c(=O)n(C)c3cnc4ccc(-c5cncc(C(C)(C)O)c5)cc4c32)c(C)n1` [Example 215.4, 1-(1-Ethyl-3-methyl-1H-pyrazol-4-yl)-8-[5-(1-hydroxy-1-methyl-ethyl)-pyridin-3-yl]-3-methyl-1,3-dihydro-imidazo[4,5-c]quinolin-2-one], the IC50 (mTOR) is reported as 13 nM, the IC50 [1] is reported as 20 nM and the IC50 [2] is reported as 136 nM. The IC50 [3] was 115 nM.
Compound `CNC(=O)c1cc(-c2ccc3ncc4c(c3c2)n(-c2cn(C)nc2C)c(=O)n4C)cnc1N` [Example 224.1, 2-Amino-5-[1-(1,3-dimethyl-1H-pyrazol-4-yl)-3-methyl-2-oxo-2,3-dihydro-1H-imidazo[4,5-c]quinolin-8-yl]-N-methyl-nicotinamide] has an IC50 (mTOR) of 34 nM, an IC50 [1] of 19 nM and an IC50 [2] of 59 nM. For the same compound, the IC50 [3] was 154 nM.
With `Cc1nn(C)cc1-n1c(=O)n(C)c2cnc3ccc(-c4cnc5c(c4)C(C)(C)C(=O)N5C)cc3c21` [Example 233, 1-(1,3-Dimethyl-1H-pyrazol-4-yl)-3-methyl-8-(1,3,3-trimethyl-2-oxo-2,3-dihydro-1H-pyrrolo[2,3-b]pyridin-5-yl)-1,3-dihydro-imidazo[4,5-c]quinolin-2-one] the IC50 (mTOR) was 64 nM, the IC50 [1] was 26 nM and the IC50 [2] was 55 nM. For the same compound, the IC50 [3] was 26 nM.
Compound `CCn1cc(-n2c(=O)n(C)c3cnc4ccc(-c5cnc(OC)nc5OC)cc4c32)c(C)n1` [Example 234.1, 8-(2,4-Dimethoxy-pyrimidin-5-yl)-1-(1-ethyl-3-methyl-1H-pyrazol-4-yl)-3-methyl-1,3-dihydro-imidazo[4,5-c]quinolin-2-one] has an IC50 (mTOR) of 14 nM, an IC50 [1] of 10 nM and an IC50 [2] of 17 nM. It also gave an IC50 [3] of 26 nM.
Compound `COC(C)(C)c1cncc(-c2ccc3ncc4c(c3c2)n(-c2cn(C)nc2C)c(=O)n4C)c1` [Example 239, 1-(1,3-Dimethyl-1H-pyrazol-4-yl)-8-[5-(1-methoxy-1-methyl-ethyl)-pyridin-3-yl]-3-methyl-1,3-dihydro-imidazo[4,5-c]quinolin-2-one] has an IC50 (mTOR) of 49 nM, an IC50 [1] of 28 nM and an IC50 [2] of 94 nM. For the same compound, the IC50 [3] was 41 nM.
With `CCNC(=O)c1cc(-c2ccc3ncc4c(c3c2)n(-c2cn(C)nc2C)c(=O)n4C)cnc1NC` [Example 242.1, 5-[1-(1,3-Dimethyl-1H-pyrazol-4-yl)-3-methyl-2-oxo-2,3-dihydro-1H-imidazo[4,5-c]quinolin-8-yl]-N-ethyl-2-methylamino-nicotinamide] the IC50 (mTOR) was 58 nM, the IC50 [1] was 45 nM and the IC50 [2] was 94 nM. The IC50 [3] was 85 nM.
`CCOc1cc(-c2ccc3ncc4c(c3c2)n(-c2cn(C)nc2C)c(=O)n4C)cnc1CO` [Example 243, 1-(1,3-Dimethyl-1H-pyrazol-4-yl)-8-(5-ethoxy-6-hydroxymethyl-pyridin-3-yl)-3-methyl-1,3-dihydro-imidazo[4,5-c]quinolin-2-one] gave an IC50 (mTOR) of 31 nM, an IC50 [1] of 36 nM and an IC50 [2] of 45 nM. The IC50 [3] was 91 nM.
Work on `COCCOc1cc(-c2ccc3ncc4c(c3c2)n(-c2cn(C)nc2C)c(=O)n4C)cnc1CO` [Example 244, 1-(1,3-Dimethyl-1H-pyrazol-4-yl)-8-[6-hydroxymethyl-5-(2-methoxy-ethoxy)-pyridin-3-yl]-3-methyl-1,3-dihydro-imidazo[4,5-c]quinolin-2-one] yielded an IC50 (mTOR) of 79 nM, an IC50 [1] of 115 nM and an IC50 [2] of 386 nM. It also gave an IC50 [3] of 347 nM.
In the case of `CCn1c(=O)n(-c2cn(C)nc2C)c2c3nc(-c4ccc(OC)c(OC)c4)ccc3ncc21` [Example 251, 8-(3,4-Dimethoxy-phenyl)-1-(1,3-dimethyl-1H-pyrazol-4-yl)-3-ethyl-1,3-dihydro-1,3,5,9-tetraaza-cyclopenta[a]naphthalen-2-one], the IC50 (mTOR) is reported as 105 nM, the IC50 [1] is reported as 32 nM and the IC50 [2] is reported as 64 nM. For the same compound, the IC50 [3] was 140 nM.
`COc1ccc(-c2ccc3ncc4[nH]c(=O)n(-c5cc(C)nn5C)c4c3n2)cc1OC` [Example 252, 8-(3,4-Dimethoxy-phenyl)-1-(2,5-dimethyl-2H-pyrazol-3-yl)-1,3-dihydro-1,3,5,9-tetraaza-cyclopenta[a]naphthalen-2-one] showed an IC50 (mTOR) of 10 nM, an IC50 [1] of 12 nM and an IC50 [2] of 20 nM. For the same compound, the IC50 [3] was 39 nM.

Source: patent US20140005163A1 (NOVARTIS AG, priority 2010, published 2014)
